According to patent US20060205028A1, “Active-site titration of glycosyl hydrolases” (Novozymes A/S, priority 2003, published 2006):

Tested on: xylanase Shearzyme
Experiment: Burst active site titration of xylanase
Type: biochemical
Settings: for Burst B: pH 5.0, room temperature
Protocol: The synthesized burst active site titrant 2,4-dinitrophenyl 2-deoxy-2-flouro-β-D-xylopyranoside was dissolved in Milli Q water. 100 μl dissolved titrant was mixed with 50 μl assay buffer (50 mM sodium acetate, 0.0225% Brij 35, pH 5.0) and 50 μl of a purified sample of the commercial xylanase Shearzyme (available from Novozymes) diluted in Milli Q water in the wells of a microtiter plate. Final concentrations of 2,4-dinitrophenyl 2-deoxy-2-flouro-β-D-xylopyranoside were 0.5 mM and 1 mM, whereas the xylanase was added to give final absorbances at 280 nm of 13.4, 6.7 and 3.3. After mixing, absorbance was read at 405 nm at room temperature every 7 min for 30 hours using a SpectraMax Plus (Molecular Devices) microtiter plate reader. After subtraction of absorbances read in wells with same concentration of titrant but without enzyme, the measurements were fitted to the equation: A405=B*(1−exp(−(t+LT)*ln(2)/T1/2))+S*(t+LT)
where A405 is the absorbance at 405 nm, B is the burst in absorbance at 405 nm, t is the time from first measurement of absorbance, LT is the lag time from mixing of the reagents to first measurement of absorbance, T1/2 is the half time for the exponential burst phase and S is the slope due to hydrolysis of the enzyme 2-deoxy-2-fluoro-β-D-xylopyranose complex.

[1] = Xylanase A280 3.3, titrant 0.5 mM
[2] = Xylanase A280 3.3, titrant 1 mM
[3] = Xylanase A280 6.7, titrant 0.5 mM
[4] = Xylanase A280 6.7, titrant 1 mM
[5] = Xylanase A280 13.4, titrant 0.5 mM
[6] = Xylanase A280 13.4, titrant 1 mM

Compound: O=[N+]([O-])c1ccc(O[C@@H]2OC[C@@H](O)[C@H](O)[C@H]2F)c([N+](=O)[O-])c1 [2,4-dinitrophenyl 2-deoxy-2-flouro-β-D-xylopyranoside]
- Slope S (hydrolysis of the enzyme 2-deoxy-2-fluoro-β-D-xylopyranose complex) [1]: 0.00 A405/h
- Burst B [1]: 0.24 A405
- Slope S (hydrolysis of the enzyme 2-deoxy-2-fluoro-β-D-xylopyranose complex) [2]: 0.00 A405/h
- Burst B [2]: 0.23 A405
- Slope S (hydrolysis of the enzyme 2-deoxy-2-fluoro-β-D-xylopyranose complex) [3]: 0.00 A405/h
- Burst B [3]: 0.47 A405
- Slope S (hydrolysis of the enzyme 2-deoxy-2-fluoro-β-D-xylopyranose complex) [4]: 0.00 A405/h
- Burst B [4]: 0.48 A405
- Slope S (hydrolysis of the enzyme 2-deoxy-2-fluoro-β-D-xylopyranose complex) [5]: 0.00 A405/h
- Burst B [5]: 0.84 A405
- Slope S (hydrolysis of the enzyme 2-deoxy-2-fluoro-β-D-xylopyranose complex) [6]: 0.00 A405/h
- Burst B [6]: 0.90 A405
